Common to all, as to type: physicochemical
Series [1] is described as follows: XRPD analysis of crystalline form after DSD. The source says: 8. The crystalline form was kept unchanged, as confirmed by XRPD analysis. 9. Through this delicate balance, stabilization of the suspension is accomplished (FIG. 3) in a simpler, effective, reproducible and easily scalable way; additionally, no impact on the polymorphic form was noticeable by XPRD analysis.

The nature of series [2]: Particle size (in-process control) after high pressure homogenization and during spray drying, with and without DSD. As for the experimental part:
1. Mometasone furoate monohydrate (2330 g) was suspended in water (23000 g) and stirred for 5 hours in order to obtain a uniform suspension; afterwards, it was fed to a lab scale HPH apparatus operating at pressures ranging from 757.5 to 1363.5 bar in recirculation mode (returning the discharge of the HPH to the stirred vessel inlet), having this step ended with a Dv50˜2 μm after 63 hours of operation;
2. After the homogenization step described in point 1. above, particle size of the active pharmaceutical ingredient was within target and the suspension was fed to a lab scale spray dryer in order to isolate the active pharmaceutical ingredient in the form of a powder;
3. […] Due to this unstable behavior (the final material properties were trending out of targets) the batch had to be interrupted to accommodate an investigation.
6. In order to move forward with the manufacturing of the mentioned batch and following ones, the dynamic suspension drying (DSD) was applied targeting the stabilization of the suspension during drying for that purpose the suspension was recycled at a moderated pressure of 455 bar.

Series [3] in a line: Laboratory study of Ostwald Ripening: particle size growth of size-reduced suspensions stored at different temperatures, LSW model fit. As for the experimental part:
4. In order to confirm that the observed PS instability was being caused by OR phenomenon, a laboratorial study was designed. In this study, two suspensions of MFM were size-reduced via HPH to a different PS (D50=2.0 μm and 3.0 μm) and, afterwards, stored at different temperatures (5° C. and 45° C.). In all cases, PS growth was monitored by considering […] sampling time points (24, 72, 144 and 168 h).
Before fitting the obtained data, a literature review was conducted; several models can be found for OR modeling, with most of them being modifications of the Lifshitz, Slyozov and Wagner (LSW) theory (Eq. 1), which is a kinetic model that translates an isothermal variation of the more general problem (M. Mrotzek, 2008): […]
Based on the above equation, two important observations (M. Mrotzek, 2008) (V. Sadtler, 2002) are expected when in the presence of OR: i) a cubic or quadratic growth (depending on the limiting step) and ii) a more pronounced increase of K for higher temperatures. As shown in FIG. 2 (left plot), both previous observations are valid for the current case-study, thus supporting the presence of OR; in this plot, r^3-r0^3 was represented as a function of time and the K value determined by performing a linear regression where Eq. 1 was assumed as the theoretical model; as shown in […] (right plot) a good correlation coefficient was obtained (R^2=0.94).

Results on 1 molecule are retold here after patent US10151529B2, “Dynamic suspension drying (DSD) to control Ostwald Ripening” (HOVIONE INTERNATIONAL LTD, priority 2013, dated 2018).

SMILES strings stand for the structures.

For the molecule `C[C@@H]1C[C@H]2[C@@H]3CCC4=CC(=O)C=C[C@]4(C)[C@@]3(Cl)[C@@H](O)C[C@]2(C)[C@@]1(OC(=O)c1ccco1)C(=O)CCl` [Mometasone furoate monohydrate], in series [1], the “crystalline form after DSD” value is given as “unchanged”. The “Dv50 at end of HPH step” value in series [2] (suspension in water, HPH at 757.5 to 1363.5 bar in recirculation mode, after 63 hours of operation) is given as around 2 μm. Moreover, the “particle size trend during isolating step (spray drying) without recirculation” value in series [2] (suspension kept under stirring in feed vessel, no DSD, FIG. 2) is given as “increasing values of particle size were observed over time”. In series [2] (suspension recycled to HPH at 455 bar during drying, on average, FIG. 4), the “Dv50 of isolated product manufactured through DSD” value is given as around 2 μm. In series [3] (D50 ~2 μm, 5° C., water as anti-solvent), the “Ostwald Ripening at 5° C. for target D50 range” value is “still significant”. In series [3] (suspensions size-reduced to D50 = 2.0 μm and 3.0 μm, stored at 5° C. and 45° C., up to 168 h), the “Ostwald Ripening rate constant K at 5° C. compared to 45° C.” value was “more than five times lower”.
